From US20260007613A1, “LONG-ACTING LOW-TOXICITY NOVEL CATIONIC LIPID COMPOUNDS AND COMPOSITION THEREOF” (BEIJING YOUCAREKECHUANG PHARMACEUTICAL TECHNOLOGY CO., LTD., priority 2023, published 2026)
Values joined by “and” are separate entries in the source; they are usually repeats but may differ in a detail not shown here. Identical values can stand only once.

Columns and labels:
female BALB/C mice = assay: Live imaging in mice: protein expression of Fluc-mRNA delivered by LNP formulations; type: in vivo; conditions: for average radiation intensity, times that of ALC-0315: comparator ALC-0315; for average radiation intensity, times that of HHMA: comparator HHMA; for average radiation intensity, times that of SM-102: comparator SM-102; for expression of mRNA in mice, times that of YK-302: comparator YK-302; for expression amount, times that of YK-309: comparator YK-309; for expression amount, times that of YK-313: comparator YK-313; for expression amount, times that of YK-321: comparator YK-321; for average radiation intensity, times that of compound 21: comparator compound 21; for average radiation intensity, times that of compound 23: comparator compound 23
Method in brief: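 Female BALB/C mice (4-6 weeks, 17-19 g) received LNP-formulated Fluc-mRNA […] intramuscularly. At 6 h, 24 h, 48 h and 7 d, luciferase substrate given intraperitoneally, and after 5 min average radiance measured by IVIS whole-body imaging.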

293T cells [1] = assay: Fluorescent detection of Fluc-mRNA (cell transfection efficiency of LNP formulations); type: cell-based
Method in brief: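 293T cells were seeded at 10,000/well and cultured overnight, then given LNP carrying […] Fluc-mRNA (cationic:neutral:structured:polymer-conjugated lipid 49:10:39.5:1.5 molar) for 24 h. Luminescence was developed with […] and imaged on IVIS.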

293T cells [2] = assay: Cell survival rate determination (CCK-8); type: cell-based
Method in brief: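 293T cells plated at 10,000/well (96-well), adhered overnight, then exposed 24 h to Fluc-mRNA LNP (cationic:neutral:structured:PEG-lipid 49:10:39.5:1.5) or Lipofectamine 3000. Viability by CCK-8, 1 h incubation, absorbance at 450 nm.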

[3] = Particle size and polydispersity index (PDI) of lipid nanoparticles by dynamic light scattering; type: physicochemical; conditions: LNP formulation prepared from the cationic lipid, 25° C.
Protocol: The particle size and polydispersity index (PDI) were determined by dynamic light scattering using Malvern laser particle size analyzer.
10 μL of the liposome solution was weighed, diluted to 1 mL with RNase-free deionized water, and added to the sample pool. Each sample was measured in triplicate. The measurement conditions were: […] scattering angle, and 25° C.

CCCCCCCCC(CCCCCCCC)COC(=O)CCCCCN(CCCCCC(=O)OCC(CCCCCCCC)CCCCCCCC)C[C@H](O)CN(CC)CCO [YK-312, (S)-bis(2-octyldecyl)-6,6′-((2-hydroxy-3-((2-hydroxyethyl)(ethyl)amino)propyl)azanediyl)dihexanoate]
average radiation intensity, times that of ALC-0315 (female BALB/C mice; 6 h): 9.27 times | average radiation intensity, times that of HHMA (female BALB/C mice; 6 h): 12.30 times | average radiation intensity, times that of SM-102 (female BALB/C mice; 6 h): 11.42 times | expression of mRNA in mice, times that of YK-302 (female BALB/C mice; 6 h): 549.37 times | expression amount, times that of YK-309 (female BALB/C mice; 6 h): 121.95 times | expression amount, times that of YK-313 (female BALB/C mice; 6 h): 18.11 times | expression amount, times that of YK-321 (female BALB/C mice; 6 h): 15.54 times | average radiation intensity, times that of compound 21 (female BALB/C mice; 6 h): 13.12 times | average radiation intensity, times that of compound 23 (female BALB/C mice; 6 h): 13.59 times | average radiation intensity (female BALB/C mice; 6 h after intramuscular injection): 8009850 | average radiation intensity, times that of ALC-0315 (female BALB/C mice; 24 h): 11.96 times | average radiation intensity, times that of HHMA (female BALB/C mice; 24 h): 19.00 times | average radiation intensity, times that of SM-102 (female BALB/C mice; 24 h): 18.91 times | expression of mRNA in mice, times that of YK-302 (female BALB/C mice; 24 h): 575.97 times | expression amount, times that of YK-309 (female BALB/C mice; 24 h): 135.46 times | expression amount, times that of YK-313 (female BALB/C mice; 24 h): 21.82 times | expression amount, times that of YK-321 (female BALB/C mice; 24 h): 22.51 times | average radiation intensity, times that of compound 21 (female BALB/C mice; 24 h): 20.74 times | average radiation intensity, times that of compound 23 (female BALB/C mice; 24 h): 21.80 times | average radiation intensity (female BALB/C mice; 24 h after intramuscular injection): 2278520 | average radiation intensity, times that of ALC-0315 (female BALB/C mice; 48 h): 20.43 times | average radiation intensity, times that of HHMA (female BALB/C mice; 48 h): 24.98 times | average radiation intensity, times that of SM-102 (female BALB/C mice; 48 h): 24.98 times | expression of mRNA in mice, times that of YK-302 (female BALB/C mice; 48 h): 793.37 times | expression amount, times that of YK-309 (female BALB/C mice; 48 h): 124.13 times | expression amount, times that of YK-313 (female BALB/C mice; 48 h): 31.82 times | expression amount, times that of YK-321 (female BALB/C mice; 48 h): 22.24 times | average radiation intensity, times that of compound 21 (female BALB/C mice; 48 h): 26.25 times | average radiation intensity, times that of compound 23 (female BALB/C mice; 48 h): 24.55 times | average radiation intensity (female BALB/C mice; 48 h after intramuscular injection): 813200 | average radiation intensity, times that of ALC-0315 (female BALB/C mice; 7 d): 14.97 times | average radiation intensity, times that of HHMA (female BALB/C mice; 7 d): 17.97 times | average radiation intensity, times that of SM-102 (female BALB/C mice; 7 d): 15.93 times | expression of mRNA in mice, times that of YK-302 (female BALB/C mice; 7 d): 274.74 times | expression amount, times that of YK-309 (female BALB/C mice; 7 d): 84.00 times | expression amount, times that of YK-313 (female BALB/C mice; 7 d): 32.61 times | expression amount, times that of YK-321 (female BALB/C mice; 7 d): 16.02 times | average radiation intensity, times that of compound 21 (female BALB/C mice; 7 d): 16.37 times | average radiation intensity, times that of compound 23 (female BALB/C mice; 7 d): 16.91 times | average radiation intensity (female BALB/C mice; 7 d after intramuscular injection): 105500 | Relative light unit (RLU) (293T cells [1]; LNP formulation of Fluc-mRNA, 96-well plate, 24 hours): 20148450 RLU | Multiples (YK-305) (293T cells [1]; RLU of YK-305 / RLU of the lipid of the line): 1.36 | Multiples (YK-310) (293T cells [1]; RLU of YK-310 / RLU of the lipid of the line): 1.28 | Multiples (YK-312) (293T cells [1]; RLU of YK-312 / RLU of the lipid of the line): 1.00 | Multiples (YK-318) (293T cells [1]; RLU of YK-318 / RLU of the lipid of the line, Tables 5, 7, 11): 0.56 | Multiples (YK-319) (293T cells [1]; RLU of YK-319 / RLU of the lipid of the line, Tables 5, 7, 11): 1.21 | Ratio relative to SM-102 (293T cells [1]; RLU of the lipid / RLU of SM-102, times that of SM-102): 12.56 | cell transfection efficiency, times that of ALC-0315 (293T cells [1]; comparator ALC-0315): 9.91 times | cell transfection efficiency, times that of HHMA (293T cells [1]; comparator HHMA): 10.04 times | cell transfection efficiency, times that of Lipofectamine 3000 (293T cells [1]; comparator Lipofectamine 3000): 16.99 times | cell transfection efficiency, times that of YK-009 (293T cells [1]; comparator YK-009): 3.94 times | cell transfection efficiency, times that of YK-301 (293T cells [1]; comparator YK-301): 23.92 times | cell transfection efficiency, times that of YK-302 (293T cells [1]; comparator YK-302): 725.34 times | cell transfection efficiency, times that of YK-303 (293T cells [1]; comparator YK-303): 32.17 times | cell transfection efficiency, times that of YK-304 (293T cells [1]; comparator YK-304): ~900 times and 974.01 times | cell transfection efficiency, times that of YK-306 (293T cells [1]; comparator YK-306): 9.17 times | cell transfection efficiency, times that of YK-307 (293T cells [1]; comparator YK-307): 4.42 times | cell transfection efficiency, times that of YK-308 (293T cells [1]; comparator YK-308): 4.00 times | cell transfection efficiency, times that of YK-309 (293T cells [1]; comparator YK-309): ~160 times and 160.71 times | cell transfection efficiency, times that of YK-311 (293T cells [1]; comparator YK-311): 10.26 times | cell transfection efficiency, times that of YK-313 (293T cells [1]; comparator YK-313): 23.25 times | cell transfection efficiency, times that of YK-314 (293T cells [1]; comparator YK-314): 36.81 times | cell transfection efficiency, times that of YK-315 (293T cells [1]; comparator YK-315): 12.69 times | cell transfection efficiency, times that of YK-316 (293T cells [1]; comparator YK-316): 4.19 times | cell transfection efficiency, times that of YK-317 (293T cells [1]; comparator YK-317): 5.59 times | cell transfection efficiency, times that of YK-320 (293T cells [1]; comparator YK-320): 7.45 times | cell transfection efficiency, times that of YK-321 (293T cells [1]; comparator YK-321): 14.36 times | cell transfection efficiency, times that of compound 21 (293T cells [1]; comparator compound 21): 14.07 times | cell transfection efficiency, times that of compound 23 (293T cells [1]; comparator compound 23): 14.86 times | Cell survival rate (%) (293T cells [2]; LNP formulation of Fluc-mRNA, 24 hours, CCK-8): 76.96% | cell survival rate higher than ALC-0315 (293T cells [2]; difference of survival rates, comparator ALC-0315): 25.93% | cell survival rate higher than HHMA (293T cells [2]; difference of survival rates, comparator HHMA): 10.49% | cell survival rate higher than Lipofectamine 3000 (293T cells [2]; difference of survival rates, comparator Lipofectamine 3000): 51.95% | cell survival rate higher than SM-102 (293T cells [2]; difference of survival rates, comparator SM-102): 7.51% | cell survival rate higher than YK-301 (293T cells [2]; difference of survival rates, comparator YK-301): 24.00% | cell survival rate higher than YK-302 (293T cells [2]; difference of survival rates, comparator YK-302): 60.53% | cell survival rate higher than YK-303 (293T cells [2]; difference of survival rates, comparator YK-303): 13.64% | cell survival rate higher than YK-304 (293T cells [2]; difference of survival rates, comparator YK-304): 42.80% | cell survival rate higher than YK-306 (293T cells [2]; difference of survival rates, comparator YK-306): 34.77% | cell survival rate higher than YK-307 (293T cells [2]; difference of survival rates, comparator YK-307): 15.82% | cell survival rate higher than YK-308 (293T cells [2]; difference of survival rates, comparator YK-308): 5.97% | cell survival rate higher than YK-309 (293T cells [2]; difference of survival rates, comparator YK-309): 45.35% | cell survival rate higher than YK-311 (293T cells [2]; difference of survival rates, comparator YK-311): 6.90% | cell survival rate higher than YK-313 (293T cells [2]; difference of survival rates, comparator YK-313): 8.03% | cell survival rate higher than YK-314 (293T cells [2]; difference of survival rates, comparator YK-314): 9.08% | cell survival rate higher than YK-315 (293T cells [2]; difference of survival rates, comparator YK-315): 5.68% | cell survival rate higher than YK-316 (293T cells [2]; difference of survival rates, comparator YK-316): 6.43% | cell survival rate higher than YK-317 (293T cells [2]; difference of survival rates, comparator YK-317): 17.78% | cell survival rate higher than YK-320 (293T cells [2]; difference of survival rates, comparator YK-320): 5.89% | cell survival rate higher than YK-321 (293T cells [2]; difference of survival rates, comparator YK-321): 4.62% | cell survival rate higher than compound 21 (293T cells [2]; difference of survival rates, comparator compound 21): 6.75% | cell survival rate higher than compound 23 (293T cells [2]; difference of survival rates, comparator compound 23): 5.46% | PDI (%) [3]: 33.4% | Particle size (nm) [3]: 184 nm
